Among the data in patent US20230203003A1, “Notch Inhibitors and Uses Thereof” (StemSynergy Therapeutics, Inc., priority 2020, published 2023) are EC50 and IC50 values, retold here.

What is called EC50 is the concentration at which the effect is half-maximal. Lower therefore signals higher potency in that assay. Broadly, the IC50 is the concentration at which inhibition is half-maximal.

Counter-ions that a name gives are not always drawn. Like-named read-outs stand apart in the source and are kept apart here.

Assay [1] relates to OE33 Esophageal Adenocarcinoma cell line. As to the kind of experiment: OE33 Colony Formation Assay. The assay is classed as cell-based. As to conditions: OE33 cells, 200 cells/well, 7 days, CellTiter-Glo. How it is done: OE33 Colony Formation Assay
The OE33 Esophageal Adenocarcinoma cell line was cultured and plated into 96-well tissue culture plates under sparse conditions (200 cells/well). Test compounds were serially diluted in DMSO and then into culture media (final DMSO concentration = 0.1%). Compound/media was then added to cells every 48 hours for a total of 7 days. Clonogenic growth was assessed using the CellTiter-Glo reagent, according to manufacturer (Promega) specifications. Percent inhibition was calculated as the percent of luminescence normalized to control (0.1% DMSO) wells. Nonlinear regression curve fitting was performed using GraphPad Prism software to determine EC50′s.
A general note: ATP-based viability assays read luminescence as a measure of living cells.

For another assay, the target named is T1, hNotch1ICD (Homo sapiens, UniProt P46531).
T1 construct: pLV[Tet]-Puro-TRE3G>Notch1-ICD; expressed in transfected cells; host or cells: 293A cells
T1 sequence (P46531 1754-2555 limits assumed): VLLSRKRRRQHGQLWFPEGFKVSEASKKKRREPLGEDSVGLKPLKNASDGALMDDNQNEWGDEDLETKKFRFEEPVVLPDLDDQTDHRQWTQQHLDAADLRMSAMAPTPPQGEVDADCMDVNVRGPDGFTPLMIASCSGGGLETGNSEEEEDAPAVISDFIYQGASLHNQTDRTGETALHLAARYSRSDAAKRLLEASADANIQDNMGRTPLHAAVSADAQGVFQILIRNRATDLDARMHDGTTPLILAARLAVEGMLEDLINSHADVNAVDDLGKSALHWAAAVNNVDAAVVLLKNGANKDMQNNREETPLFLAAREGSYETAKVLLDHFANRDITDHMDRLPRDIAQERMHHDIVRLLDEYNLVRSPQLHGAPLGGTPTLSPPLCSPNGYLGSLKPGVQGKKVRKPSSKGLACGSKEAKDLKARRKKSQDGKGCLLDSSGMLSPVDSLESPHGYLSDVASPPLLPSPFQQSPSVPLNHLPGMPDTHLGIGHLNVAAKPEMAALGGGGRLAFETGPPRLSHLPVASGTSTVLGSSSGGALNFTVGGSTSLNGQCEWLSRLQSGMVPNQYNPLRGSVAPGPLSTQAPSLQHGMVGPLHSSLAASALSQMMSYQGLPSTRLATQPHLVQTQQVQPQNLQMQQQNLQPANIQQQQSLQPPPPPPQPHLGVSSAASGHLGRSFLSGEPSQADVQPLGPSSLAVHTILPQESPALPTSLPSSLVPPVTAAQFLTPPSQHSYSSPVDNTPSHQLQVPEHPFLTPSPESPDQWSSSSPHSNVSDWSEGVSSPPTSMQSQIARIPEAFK
As to the kind of experiment: Notch1 Reporter Assay (Dox-inducible Notch1-ICD, CSL-responsive luciferase in 293A cells). The assay is classed as cell-based. The note with it: read-out: Notch1 Reporter Assay IC50. How it is done: 293A cells expressing 1) pCMV-Tet-On 3G, 2) pLV[Tet]-Puro-TRE3G>Notch1-ICD, 3) pLV[Tet]-Puro-TRE3G>Notch2-ICD, 4) pLV[Tet]-Puro-TRE3G>Notch3-ICD, and 5) pCSL-RElement-Luc were used. When Doxycycline is added, the Tet-ON gene activates expression of hNotch1ICD, which together with endogenous NTC components binds to CSL responsive elements (pCSL-RElement-Luc) and expresses luciferase. 1 ×× 10^4 cells are plated in 100 µL (96-well format). 24 h later, compounds (10 mM stock in DMSO) are diluted in DMSO to 200X, then added (5 ul into 1 mL) to cell culture media containing 50 ng/mL Dox. This is then added 1:1 to cells. Final DMSO = 0.25%, Dox = 25 ng/mL. After 24 h, media is discarded, and cells are lysed in passive lysis buffer (Promega). Cells are rocked at room temperature for 15 min and then lysate is divided for luciferase assay (Luciferase Assay System, Promega) and cell viability (CellTiter Glo 2.0, Promega). Raw luciferase is normalized to cell viability, and then scaled to DMSO wells. Results are analyzed and IC50′s are determined in GraphPad by nonlinear regression curve fitting (4 parameter) of dose response curves.

Where [2] appears, read: 293A cells, 24 h, luciferase normalized to cell viability.
Where [3] appears, read: value printed in the synthesis heading of the compound.

`CC(C)Cn1c(=O)c(C(=O)Nc2cccc(N(C)CC3CC3)c2)c(O)c2ccccc21` [compound 562, N-(3-((cyclopropylmethyl)(methyl)amino)phenyl)-4-hydroxy-1-isobutyl-2-oxo-1,2-dihydroquinoline-3-carboxamide] displayed an EC50 in assay [1] (Homo sapiens, OE33, 168 h) of 7.7 µM. Moreover, on hNotch1ICD (setting [2]), the IC50 was 15 µM.

`CC(C)Cn1c(=O)c(C(=O)Nc2ccc(N3CCN(C)CC3)c(F)c2)c(O)c2ccccc21` [572(02)]: the EC50 in assay [1] (Homo sapiens, OE33, 168 h) turned out to be 2.2 µM.

`Cc1cccnc1NC(=O)c1c(O)c2ccccc2n(Cc2ccccc2)c1=O` [SSTN-408]: the EC50 in assay [1] (listed as 408) stood at 3.7 µM.

For `CC(C)Cn1c(=O)c(C(=O)Nc2cc(N3CCOCC3)ccn2)c(O)c2ccccc21` [compound 527, 4-hydroxy-1-isobutyl-N-(4-morpholinopyridin-2-yl)-2-oxo-1,2-dihydroquinoline-3-carboxamide], the IC50 on hNotch1ICD (setting [2]) was determined as 8.5 µM.

As to `CC(C)Cn1c(=O)c(C(=O)Nc2cccc(N3CCOCC3)c2)c(O)c2ccccc21` [compound 554, 4-hydroxy-1-isobutyl-N-(3-morpholinophenyl)-2-oxo-1,2-dihydroquinoline-3-carboxamide], at hNotch1ICD (setting [2]), the IC50 was 4.3 µM.

For the compound `Cc1cccnc1NC(=O)c1c(O)c2ccccc2n(Cc2ccccc2)c1=O` [SSTN-452], the EC50 in assay [1] (listed as 452) turned out to be 1.6 µM.

As to `CCCn1c2c(c(O)c(C(=O)Nc3ccccn3)c1=O)CCCC2` [SSTN-401], the IC50 at hNotch1ICD (setting [2]) amounted to 21.6 µM.

In the case of `Cc1ccccc1NC(=O)c1c(O)c2ccccc2n(CC(C)C)c1=O` [compound 535, 4-hydroxy-1-isobutyl-2-oxo-N-(o-tolyl)-1,2-dihydroquinoline-3-carboxamide], the IC50 on hNotch1ICD (setting [2]) is 5.9 µM.

Turning to `CC(C)Cn1c(=O)c(C(=O)Nc2ccc(N3CCN(C)CC3)cc2)c(O)c2ccccc21` [SSTN-569_HCl salt, 4-hydroxy-1-isobutyl-N-(4-(4-methylpiperazin-1-yl)phenyl)-2-oxo-1,2-dihydroquinoline-3-carboxamide hydrochloride salt], at hNotch1ICD (setting [3]), the IC50 was determined as 4.93 µM.

`COc1ccnc(NC(=O)c2c(O)c3ccccc3n(CC(C)C)c2=O)c1` [compound 532, 4-hydroxy-1-isobutyl-N-(4-methoxypyridin-2-yl)-2-oxo-1,2-dihydroquinoline-3-carboxamide]: on hNotch1ICD (setting [2]), the IC50 amounted to 12.4 µM.

Turning to `CC(C)Cn1c(=O)c(C(=O)Nc2cccc(F)c2N2CCN(C)CC2)c(O)c2ccccc21` [SSTN-581_HCl salt, N-(3-fluoro-2-(4-methylpiperazin-1-yl)phenyl)-4-hydroxy-1-isobutyl-2-oxo-1,2-dihydroquinoline-3-carboxamide hydrochloride salt], the IC50 on hNotch1ICD (setting [3]) came out at 7.68 µM.

For the compound `CC(C)Cn1c(=O)c(C(=O)Nc2ccc(F)cc2N2CCN(C)CC2)c(O)c2ccccc21` [SSTN-570, N-(4-fluoro-2-(4-methylpiperazin-1-yl)phenyl)-4-hydroxy-1-isobutyl-2-oxo-1,2-dihydroquinoline-3-carboxamide], the IC50 at hNotch1ICD (setting [3]) turned out to be 6.5 µM.

As to `CC(C)Cn1c(=O)c(C(=O)Nc2ccc(N3CCN(C)CC3)c(F)c2)c(O)c2ccccc21` [SSTN-572, N-(3-fluoro-4-(4-methylpiperazin-1-yl)phenyl)-4-hydroxy-1-isobutyl-2-oxo-1,2-dihydroquinoline-3-carboxamide], the IC50 at hNotch1ICD (setting [3]) was determined as 17.7 µM.

Turning to `CC(C)Cn1c(=O)c(C(=O)Nc2ccc(F)c(N3CCN(C)CC3)c2)c(O)c2ccccc21` [SSTN-584_HCl salt, N-(4-fluoro-3-(4-methylpiperazin-1-yl)phenyl)-4-hydroxy-1-isobutyl-2-oxo-1,2-dihydroquinoline-3-carboxamide hydrochloride salt], the IC50 on hNotch1ICD (setting [3]) came to 6.04 µM.

`CC(C)Cn1c(=O)c(C(=O)NCc2ccco2)c(O)c2ccccc21` [compound 541, N-(furan-2-ylmethyl)-4-hydroxy-1-isobutyl-2-oxo-1,2-dihydroquinoline-3-carboxamide]: on hNotch1ICD (setting [2]), the 50% inhibitory concentration (IC50) was found to be 15.1 µM.

Regarding `CC(C)Cn1c(=O)c(C(=O)Nc2cccc(F)c2)c(O)c2cc(N3CCN(C)CC3)ccc21` [SSTN-577, N-(3-fluorophenyl)-4-hydroxy-1-isobutyl-6-(4-methylpiperazin-1-yl)-2-oxo-1,2-dihydroquinoline-3-carboxamide], on hNotch1ICD (setting [3]), the IC50 amounted to 9.69 µM.

Consider `COc1ccc2c(c1)c(O)c(C(=O)Nc1ncccc1C)c(=O)n2CC(C)C` [compound 514, 4-hydroxy-1-isobutyl-6-methoxy-N-(3-methylpyridin-2-yl)-2-oxo-1,2-dihydroquinoline-3-carboxamide], for which, at hNotch1ICD (setting [2]), the IC50 stood at 13.6 µM.

Consider `CC(C)Cn1c(=O)c(C(=O)Nc2cc(F)ccc2N2CCN(C)CC2)c(O)c2ccccc21` [SSTN-571_HCl salt, N-(5-fluoro-2-(4-methylpiperazin-1-yl)phenyl)-4-hydroxy-1-isobutyl-2-oxo-1,2-dihydroquinoline-3-carboxamide hydrochloride salt], for which, at hNotch1ICD (setting [3]), the IC50 came out at 7.87 µM.

As to `CC(C)Cn1c(=O)c(C(=O)Nc2cccc(F)c2)c(O)c2ccc(Br)cc21` [SSTN-567, 7-bromo-N-(3-fluorophenyl)-4-hydroxy-1-isobutyl-2-oxo-1,2-dihydroquinoline-3-carboxamide], the IC50 at hNotch1ICD (setting [2]) amounted to 33.2 µM.

Take `CC(C)Cn1c(=O)c(C(=O)Nc2ccc(F)cc2N2CCN(C)CC2)c(O)c2ccccc21` [SSTN-570_HCl salt, N-(4-fluoro-2-(4-methylpiperazin-1-yl)phenyl)-4-hydroxy-1-isobutyl-2-oxo-1,2-dihydroquinoline-3-carboxamide hydrochloride salt]: the IC50 at hNotch1ICD (setting [3]) is 5.6 µM.

For the compound `Cc1ccncc1NC(=O)c1c(O)c2ccccc2n(CC(C)C)c1=O` [compound 550, 4-hydroxy-1-isobutyl-N-(4-methylpyridin-3-yl)-2-oxo-1,2-dihydroquinoline-3-carboxamide], the half-maximal inhibitory concentration (IC50) at hNotch1ICD (setting [2]) turned out to be 20.8 µM.

In the case of `CC(C)Cn1c(=O)c(C(=O)Nc2cccc(F)c2)c(O)c2c(N3CCN(C)CC3)cccc21` [SSTN-588_HCl salt, N-(3-fluorophenyl)-4-hydroxy-1-isobutyl-5-(4-methylpiperazin-1-yl)-2-oxo-1,2-dihydroquinoline-3-carboxamide hydrochloride salt], at hNotch1ICD (setting [3]), the IC50 was found to be 9.8 µM.

Take `CC(C)Cn1c(=O)c(C(=O)Nc2cc(F)cc(N3CCN(C)CC3)c2)c(O)c2ccccc21` [SSTN-583, N-(3-fluoro-5-(4-methylpiperazin-1-yl)phenyl)-4-hydroxy-1-isobutyl-2-oxo-1,2-dihydroquinoline-3-carboxamide]: the IC50 at hNotch1ICD (setting [3]) was found to be 8.13 µM.

Consider `Cc1cccnc1NC(=O)c1c(O)c2ccc(N3CCN(C)CC3)cc2n(CC(C)C)c1=O` [SSTN-580_HCl salt, 4-hydroxy-1-isobutyl-7-(4-methylpiperazin-1-yl)-N-(3-methylpyridin-2-yl)-2-oxo-1,2-dihydroquinoline-3-carboxamide hydrochloride salt], for which the IC50 on hNotch1ICD (setting [3]) turned out to be 14 µM.

Turning to `CC(C)Cn1c(=O)c(C(=O)Nc2cccc(F)c2)c(O)c2c(N3CCN(C)CC3)cccc21` [588(02)], at hNotch1ICD (setting [2]), the IC50 came out at 9.8 µM.

Consider `CC(C)Cn1c(=O)c(C(=O)Nc2ccc(N3CCN(C)CC3)cc2)c(O)c2ccccc21` [SSTN-569, 4-hydroxy-1-isobutyl-N-(4-(4-methylpiperazin-1-yl)phenyl)-2-oxo-1,2-dihydroquinoline-3-carboxamide], for which the IC50 at hNotch1ICD (setting [3]) worked out at 8.42 µM.

On to `CC(C)Cn1c(=O)c(C(=O)Nc2ccn(C)n2)c(O)c2ccccc21` [compound 533, 4-hydroxy-1-isobutyl-N-(1-methyl-1H-pyrazol-3-yl)-2-oxo-1,2-dihydroquinoline-3-carboxamide], for which the IC50 on hNotch1ICD (setting [2]) turned out to be 22.5 µM.
